# Legend:
# [1] = test system: FASN (fatty acid synthase); experiment: SREBP-1c target gene expression in HepG2 cells (real time PCR): FASN; assay type: cell-based; details: HepG2 cells stimulated with oleate, 50 μM, 6 hours
# Procedure: (§1) HepG2 cells (ATCC) were seeded at 20,000 cells per well in 96 well plates. After adhering overnight, growth media (10% FBS in DMEM) was removed and cells were serum starved for 24 hours in DMEM containing 1% fatty acid free bovine serum albumin (BSA, Sigma). […] Cells were incubated for 6 hours and then washed with PBS. RNA was reverse-transcribed using the cells to cDNA reagents according to standard protocols (outlined in Applied Biosystem StepOne Real-time PCR protocols). Real time PCR of transcripts was performed with Taqman assays for the three specific genes FASN (fatty acid synthase), SCD (steroyl CoA desaturase) and ApoA1 (apolipoprotein A1). In all three cases, 18S-VIC® was used as a normalization control.
# [2] = test system: SCD (steroyl CoA desaturase); experiment: SREBP-1c target gene expression in HepG2 cells (real time PCR): SCD; assay type: cell-based; details: HepG2 cells stimulated with oleate, 50 μM, 6 hours
# Procedure: as §1
# [3] = test system: ApoA1 (apolipoprotein A1); experiment: SREBP-1c target gene expression in HepG2 cells (real time PCR): ApoA1; assay type: cell-based; details: HepG2 cells stimulated with oleate, 50 μM, 6 hours
# Procedure: as §1
# [4] = test system: ApoB secretion in HepG2 cells; details: HepG2 cells, 50, 100 and 200 μM; compared to niacin at 5 mM
# Procedure: HepG2 cells (ATCC) are seeded at 10,000 cells per well in 96 well plates. After adhering overnight, growth media (10% FBS in DMEM) is removed and cells are serum starved for 24 hours in DMEM containing 0.1% fatty acid free bovine serum albumin (BSA, Sigma). Cells are then treated with a compound. […] All treatments are performed in triplicate. Simultaneous with compound treatment, ApoB secretion is stimulated with addition of 0.1 oleate complexed to fatty acid free BSA in a 5:1 molar ratio. Incubation with a compound and oleate is conducted for 24 hours. Media supernatants are removed and ApoB concentrations are measured using ELISA kits (Mabtech AB). Percent inhibition of ApoB secretion is determined by normalizing data to vehicle treated wells. For a given compound, an IC50 (concentration at which 50% of ApoB secretion is inhibited) can also be determined by using a 4 parameter-fit inhibition curve model (Graph Pad Prism®). In each experiment, cell viability is determined using the ATPlite 1-Step kit (Perkin Elmer), such that compound effects due to cytotoxicity can be monitored.
# female APOE*3Leiden mice = experiment: Plasma cholesterol and triglycerides in APOE*3Leiden mice on high cholesterol Western type diet; assay type: in vivo; details: I-8 0.75% w/w in diet, atorvastatin 0.0015% w/w in diet
# Procedure: The study was conducted using female APOE*3Leiden mice (groups of each n=10) and one untreated reference control group on chow (n=5). To induce dyslipidemia, a high cholesterol Western type diet containing 1% cholesterol, 15% cacao butter, 40.5% sucrose and 1% corn oil (WTD) was fed to the mice for a total experimental period of 20 weeks (of which 4 weeks are a run-in period).
# The dyslipidemic mice were grouped on the basis of plasma cholesterol at t=0 assayed in 4 h fasting blood. Mice with low cholesterol after the run-in period were excluded so that homogenous experimental groups were obtained. A group of reference mice (n=5) remained on a chow diet during the complete study period (normolipidemic reference mice).
# This mix was then added to the master mix (containing the rest of the ingredients) and mixed thoroughly. The diet was frozen to −20° C. On the subsequent day, the diet was broken into small pellets (approx 5 g per piece) and freeze dried, and stored in vacuum sealed bags (approx 500 g) at −20° C. until use. The diets were refreshed daily and unused diet was discarded.
# EDTA plasma was collected in weeks −4, 0, 2 and 4 weeks.
# Healthy human volunteers = experiment: Plasma triglycerides in healthy human volunteers after NIH high fat breakfast; assay type: in vivo
# Procedure: Healthy human volunteers were divided into 4 treatment groups. The first treatment group was a placebo group (n=6). The other three groups consisted a single oral dose of compound I-8 at either 300 mg (n=6), 1000 mg (n=7) or 2000 mg (n=4). All subjects were given an NIH high fat breakfast in order to induce an elevated level of triglycerides (In a typical NIH high fat breakfast, 450 calories are derived from fat). Compound I-8 was then administered as a single oral dose at the three indicated doses at three different time points: immediately following the high fat meal, 2 hours following the high fat meal and 4 hours following the high fat meal. At each of the time points, plasma triglyceride levels were determined according to standard protocols. […] Based on these dramatic effects on plasma triglycerides levels, compound I-8 and other fatty acid niacin conjugates disclosed in this invention are useful for the treatment of type I hyperlipoproteinemia and type 5 hyperlipoproteinemia.
# Male C57BL/6 mice = experiment: Liver weight gain induced by Lomitapide 10 mg/kg in mice on high fat cholesterol diet; assay type: in vivo
# Source text: The objective of this example is to determine if 1-8, a representative compound of the present invention, can abrogate the development of hepatic steatosis induced by oral administration of the MTP inhibitor Lomitapide for 7 days in normal mice.
# Male C57BL/6 mice were acclimated to the high fat cholesterol diet (D13093001; 1% cholesterol, 15% cacao butter, 40.5% sucrose and 1% corn oil (Research Diets, Inc. New Brunswick, N.J.) upon arrival at CRO facility. The test diet containing the compound (I-8) sufficient for approx. 3 kg of diet (i.e. 25 g of 1-8 from the invention), was prepared by adding the test compound to melted, hand warm cocoa butter and mixed for 5 min. This mix was then added to the master mix (containing the rest of the ingredients) and mixed thoroughly. The diet was frozen to −20° C. On the subsequent day, the diet was broken into small pellets (approx 5 g per piece) and freeze dried, and stored in vacuum sealed bags (approx 500 g) at −20° C. until used. This diet was designated D13093002. The diets were refreshed daily and unused diet is discarded. Lomitapide delivered via oral gavage formulation (10 mg/kg once daily) or vehicle was dosed as described in Table 1. The volume of each gavage dose delivered (mL/kg) was based on each individual animal's most recent recorded body weight. […]
# mice = experiment: Liver weight gain induced by Lomitapide 1 and 3 mg/kg in mice on high fat cholesterol diet (second study); assay type: in vivo; details: I-8 0.75% in diet from Day -7 with Lomitapide 1 or 3 mg/kg once daily, Days 1-7
# Procedure: A second study was conducted with a longer predosing of 1-8 (7 days versus 3 days) and lower doses of Lomitapide (1 and 3 mg/kg once daily) as described in Table 2. Starting on Day −7 the animals in Groups 1, 2, and 4 received a high-fat cholesterol diet (D13093001, Research Diets, Inc. New Brunswick, N.J.). Similarly, starting on Day −7 the animals in Groups 3 and 5 received a high-fat cholesterol diet w/0.75% 1-8 (D13093002, Research Diets, Inc.). On day −1 all mice received an oral gavage dose of vehicle. The baseline blood sample were collected from each mouse 90 minutes after the vehicle dose and stored as plasma. The volume of each gavage dose delivered (mL/kg) was based on each individual animal's most recent recorded body weight.
# Observations were recorded at least twice daily and at each sample collection time point. The presence or absence of any clinical abnormalities was recorded. Body weights were recorded on Day −7, and daily on Day −1 through Day 7 (AM). Interim blood samples were collected and a terminal blood sample was collected on Day 7 by intracardiac puncture following anesthetization with CO2. Each whole blood sample was transferred into tubes containing sodium heparin anticoagulant and placed on ice until processing. Each whole blood sample was centrifuged at 2200×g for 10 minutes at 5° C.+3° C. to isolate plasma. […]
# [5] = test system: ApoB secretion in HepG2 cultures; details: media supernatants of HepG2 cultures (Jin et al. 1999); cited from earlier work
# [6] = test system: ApoA1 secretion in HepG2 cultures; details: media supernatants of HepG2 cultures (Jin et al. 1997); cited from earlier work
compound,measurement,setting,value
"CC/C=C\C/C=C\C/C=C\C/C=C\C/C=C\C/C=C\CCC(=O)NCCNC(=O)c1cccnc1 [Compound I-7, N-(2-(4Z,7Z,10Z,13Z,16Z,19Z)-docosa-4,7,10,13,16,19-hexaenamidoethyl)nicotinamide]",FASN gene expression,[1],statistically significant inhibition
same,SCD gene expression,[2],statistically significant inhibition
same,ApoA1 gene expression,[3],increase
same,inhibition of ApoB secretion,[4],significant inhibition
"CC/C=C\C/C=C\C/C=C\C/C=C\C/C=C\CCCC(=O)NCCNC(=O)c1cccnc1 [Compound I-8, N-(2-(5Z,8Z,11Z,14Z,17Z)-eicosa-5,8,11,14,17-pentaenamidoethyl)nicotinamide]",FASN gene expression,[1],statistically significant inhibition
same,SCD gene expression,[2],statistically significant inhibition
same,ApoA1 gene expression,[3],increase
same,plasma cholesterol,female APOE*3Leiden mice; after 4 weeks of treatment,Comparable level of cholesterol reduction
same,plasma triglycerides,female APOE*3Leiden mice; after 4 weeks of treatment,significant reduction
same,plasma cholesterol,female APOE*3Leiden mice; t=2 weeks of treatment,statistically significant reduction
same,reduction in triglycerides,Healthy human volunteers; 2 hour time point following the high fat meal,robust signal was still observed
same,reduction in triglycerides,Healthy human volunteers; 4 hour time point following the high fat meal,robust signal was still observed
same,plasma triglycerides,"Healthy human volunteers; single oral dose 1000 mg, after NIH high fat breakfast",significant reduction
same,plasma triglycerides,"Healthy human volunteers; single oral dose 2000 mg, after NIH high fat breakfast",significant reduction
same,effect on plasma triglycerides,"Healthy human volunteers; single oral dose 300, 1000 or 2000 mg, after NIH high fat breakfast",dose-dependent effect
same,Lomitapide-increased liver weight on cotreatment,"Male C57BL/6 mice; I-8 0.75% in diet with Lomitapide 10 mg/kg once daily, 7 days",completely abrogated
same,Lomitapide-increased liver weight on cotreatment,mice,reduced
"O=C(NC1CCN(CCCCC2(C(=O)NCC(F)(F)F)c3ccccc3-c3ccccc32)CC1)c1ccccc1-c1ccc(C(F)(F)F)cc1 [Lomitapide, reference compound]",increase in liver weight,"Male C57BL/6 mice; Lomitapide alone 10 mg/kg once daily oral gavage, one week, high fat cholesterol diet",15%
O=C(O)c1cccnc1 [niacin],secretion of ApoB,[5],inhibiting
same,secretion of ApoA1,[6],increase

# From patent publication US20150352094A1, “USE OF FATTY ACID NIACIN CONJUGATES FOR TREATING DISEASES” (CATABASIS PHARMACEUTICALS, INC., priority 2013, published 2015)
